Activity calls are given as the source filed them. No cut-off for these calls is given here.
Key:
Type in all cases: functional, cell-based
PANC-1 = experiment: Antiproliferative activity against human PANC-1 cells by MTT assay
HCT-116 = experiment: Antiproliferative activity against human HCT-116 cells by MTT assay
SK-MEL-28 = experiment: Antiproliferative activity against human SK-MEL-28 cells by MTT assay
MCF7 = experiment: Antiproliferative activity against human MCF7 cells by MTT assay
PC-3 = experiment: Antiproliferative activity against human PC-3 cells by MTT assay
HT-1080 = experiment: Antiproliferative activity against human HT-1080 cells by MTT assay
HeLa [1] = experiment: Antiproliferative activity against human HeLa cells by MTT assay
HeLa [2] = experiment: Induction of autophagy in human HeLa cells assessed as increase in LC3-II expression at 100 uM incubated for 24 hrs by Western blot analysis
HeLa [3] = experiment: Effect on p70S6K phosphorylation in human HeLa cells at 100 uM incubated for 24 hrs by Western blot analysis
HeLa [4] = experiment: Induction of autophagy in human HeLa cells assessed as increase in LC3-II expression incubated for 24 hrs by Western blot analysis; conditions: dose 1-30 µM
HeLa [5] = experiment: Induction of autophagic flux in human HeLa cells assessed as increase in LC3-II expression at 30 to 100 uM incubated for 24 hrs in presence of E64D by Western blot analysis; conditions: dose 30-100 µM
HeLa [6] = experiment: Induction of autophagic flux in human HeLa cells assessed as increase in LC3-II expression at 30 to 100 uM incubated for 24 hrs in presence of pepA by Western blot analysis; conditions: dose 30-100 µM
SH-SY5Y [7] = experiment: Induction of autophagic flux in human SH-SY5Y cells expressing GFP-LC3 assessed as increase in LC3 punctae co-localized with LAMP1 at 30 to 100 uM incubated for 24 hrs in presence of E64D; conditions: dose 30-100 µM
SH-SY5Y [8] = experiment: Induction of autophagic flux in human SH-SY5Y cells expressing GFP-LC3 assessed as increase in LC3 punctae co-localized with LAMP1 at 30 to 100 uM incubated for 24 hrs in presence of pepA; conditions: dose 30-100 µM
HeLa [9] = experiment: Effect on p70S6K phosphorylation in human HeLa cells at 1 to 30 uM incubated for 24 hrs by Western blot analysis; conditions: dose 1-30 µM

| SMILES | IC50 (PANC-1) | IC50 (HCT-116) | IC50 (SK-MEL-28) | IC50 (MCF7) | IC50 (PC-3) | IC50 (HT-1080) | IC50 (HeLa [1]) | Activity (HeLa [2]) | Activity (HeLa [3]) | Activity (HeLa [4]) | Activity (HeLa [5]) | Activity (HeLa [6]) | Activity (SH-SY5Y [7]) | Activity (SH-SY5Y [8]) | Activity (HeLa [9]) |
| --- | --- | --- | --- | --- | --- | --- | --- | --- | --- | --- | --- | --- | --- | --- | --- |
| CC(=O)NC1=CC(=O)O/C1=C/C(OC(C)=O)OC(C)=O | 31.3 µM | 29.9 µM | 37.1 µM | 22.4 µM | 42.6 µM | 40.8 µM | 44.8 µM | Active | inactive |  |  |  |  |  |  |
| NC1=CC(=O)OC1CCO (stereo not given) | > 100 µM | > 100 µM | > 100 µM | > 100 µM | > 100 µM | > 100 µM | > 100 µM |  |  |  |  |  |  |  |  |

Now from value to compound, other results behind:

| IC50 (PANC-1) | IC50 (HCT-116) | IC50 (SK-MEL-28) | IC50 (MCF7) | IC50 (PC-3) | IC50 (HT-1080) | IC50 (HeLa [1]) | SMILES | Activity (HeLa [2]) | Activity (HeLa [3]) | Activity (HeLa [4]) | Activity (HeLa [5]) | Activity (HeLa [6]) | Activity (SH-SY5Y [7]) | Activity (SH-SY5Y [8]) | Activity (HeLa [9]) |
| --- | --- | --- | --- | --- | --- | --- | --- | --- | --- | --- | --- | --- | --- | --- | --- |
| 16.1 µM | 27.2 µM | 12.3 µM | 38.8 µM | 21.7 µM | 46.1 µM | 27.7 µM | CC(=O)NC1=CC(=O)O/C1=C/C=O | Active | inactive |  |  |  |  |  |  |
| > 100 µM | > 100 µM | > 100 µM | > 100 µM | > 100 µM | > 100 µM | > 100 µM | NC1=CC(=O)O/C1=C/CO |  |  |  |  |  |  |  |  |
| 5.29 µM | 5.35 µM | 5.87 µM | 7.87 µM | 9.79 µM | 11.6 µM | 15.6 µM | NC1=CC(=O)O/C1=C/C=O |  |  | Dose-Dependent Effect | Active | Active | Active | Active | inactive |

From ChEMBL document CHEMBL5625273, “Antiproliferative activities through accelerating autophagic flux by basidalin and its analogs in human cancer cells” (Bioorg Med Chem Lett, 2024)
